What was measured:
[1] = target: T1, Poly [ADP-ribose] polymerase 1 (Homo sapiens, UniProt P09874); experiment: Inhibition of PARP1 by microplate scintillation counting
[2] = target: T1, Poly [ADP-ribose] polymerase 1; experiment: Inhibition of PARP1 in human C41 cells; type: cell-based

T1 sequence (P09874 whole entry): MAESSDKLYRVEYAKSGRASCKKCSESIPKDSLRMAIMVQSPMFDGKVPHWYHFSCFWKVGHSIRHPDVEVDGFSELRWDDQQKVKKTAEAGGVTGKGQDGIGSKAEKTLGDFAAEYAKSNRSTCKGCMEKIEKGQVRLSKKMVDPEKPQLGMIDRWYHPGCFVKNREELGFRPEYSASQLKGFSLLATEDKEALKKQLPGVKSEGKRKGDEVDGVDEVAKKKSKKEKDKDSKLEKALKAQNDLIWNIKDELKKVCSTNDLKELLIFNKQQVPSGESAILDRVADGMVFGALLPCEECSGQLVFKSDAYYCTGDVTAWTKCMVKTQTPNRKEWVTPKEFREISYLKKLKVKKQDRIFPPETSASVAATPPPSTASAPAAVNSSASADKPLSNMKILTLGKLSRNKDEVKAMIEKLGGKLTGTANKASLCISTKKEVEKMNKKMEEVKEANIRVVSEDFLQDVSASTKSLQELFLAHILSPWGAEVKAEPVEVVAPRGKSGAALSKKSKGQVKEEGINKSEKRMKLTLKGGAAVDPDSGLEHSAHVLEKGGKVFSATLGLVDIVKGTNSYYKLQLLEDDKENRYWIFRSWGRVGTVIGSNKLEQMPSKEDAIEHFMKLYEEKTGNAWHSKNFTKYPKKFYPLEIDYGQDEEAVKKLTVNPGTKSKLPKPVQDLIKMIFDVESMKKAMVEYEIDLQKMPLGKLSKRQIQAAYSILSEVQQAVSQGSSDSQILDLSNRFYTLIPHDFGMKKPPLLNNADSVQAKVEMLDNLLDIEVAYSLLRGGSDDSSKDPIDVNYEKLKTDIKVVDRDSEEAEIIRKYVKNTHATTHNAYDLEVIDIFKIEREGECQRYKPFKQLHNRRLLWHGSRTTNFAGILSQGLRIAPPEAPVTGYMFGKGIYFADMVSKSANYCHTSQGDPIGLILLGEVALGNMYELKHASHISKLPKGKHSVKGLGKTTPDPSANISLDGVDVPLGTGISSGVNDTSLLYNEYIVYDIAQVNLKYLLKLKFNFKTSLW

Row | Compound | Ki [1] [nM] | EC50 [2] [nM]
1 | NC(=O)c1cccc2c1C(=O)N(CC1CCNCC1)C2 | 384 | 
2 | NC(=O)c1cccc2c1C(=O)N(CC1CCCN1)C2 (stereo unspecified) | 377 | 374
3 | NC(=O)c1cccc2c1C(=O)N(C1CCCNC1)C2 (stereo unspecified) | 140 | 
4 | NC(=O)c1cccc2c1C(=O)N(c1ccc(C3CCNCC3)cc1)C2 | 32 | 120
5 | NC(=O)c1cccc2c1C(=O)N(c1ccc(CN3CCCC3)cc1)C2 | 53 | 53
6 | Cc1cccc(N2Cc3cccc(C(N)=O)c3C2=O)c1 | 261 | 
7 | NC(=O)c1cccc2c1C(=O)N(CC1CCCNC1)C2 (stereo unspecified) | 164 | 
8 | NC(=O)c1cccc2c1C(=O)N(c1cccc(C3CCNCC3)c1)C2 | 314 | 
9 | CN(C)c1ccc(N2Cc3cccc(C(N)=O)c3C2=O)cc1 | 70 | 372
10 | NC(=O)c1cccc2c1C(=O)N(Cc1cccnc1)C2 | > 9500 | 
11 | NC(=O)c1cccc2c1C(=O)N(C1CCNCC1)C2 | 33 | 51
12 | NC(=O)c1cccc2c1C(=O)N(C1CCCCC1)C2 | 172 | > 1000
13 | CN1CCN(c2ccc(N3Cc4cccc(C(N)=O)c4C3=O)cc2)CC1 | 48 | 22
14 | NC(=O)c1cccc2c1C(=O)N(C1CCNC1)C2 (stereo unspecified) | 59 | 160
15 | CC(C)CN1Cc2cccc(C(N)=O)c2C1=O | 112 | > 1000
16 | NC(=O)c1cccc2c1C(=O)N(c1cccc(CN3CCCC3)c1)C2 | 391 | 
17 | CN1Cc2cccc(C(N)=O)c2C1=O | 123 | 
